The compounds below were run against human somatostatin receptor subtype 5 (Homo sapiens, UniProt P35346) (assay: cAMP assay for SST5R (inhibition of cAMP via human SST5 receptor)).
Sequence of human somatostatin receptor subtype 5 (P35346 whole entry): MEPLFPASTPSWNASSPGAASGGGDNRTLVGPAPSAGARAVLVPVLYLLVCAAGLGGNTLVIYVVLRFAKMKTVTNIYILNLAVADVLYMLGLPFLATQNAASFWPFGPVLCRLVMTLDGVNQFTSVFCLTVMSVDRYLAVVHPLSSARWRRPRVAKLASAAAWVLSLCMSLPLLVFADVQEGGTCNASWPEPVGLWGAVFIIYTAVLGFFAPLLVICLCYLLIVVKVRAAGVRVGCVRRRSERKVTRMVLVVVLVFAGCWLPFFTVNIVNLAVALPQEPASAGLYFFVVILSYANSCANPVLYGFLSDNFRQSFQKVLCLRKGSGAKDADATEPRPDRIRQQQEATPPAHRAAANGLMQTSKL
In the case of NCC1CN(c2c(-c3ccc4cc[nH]c4c3)cncc2-c2nc3cc(F)cc(F)c3[nH]2)C1 [Compound 1-35, 1-{1-[3-(4,6-difluoro-1H-1,3-benzodiazol-2-yl)-5-(1H-indol-6-yl)pyridin-4-yl]azetidin-3-yl}methanamine], the EC50 is reported as over 1000 nM. With Cc1cc(F)cc(-c2cncc(-c3nc4cc(C#N)c(F)cc4[nH]3)c2N2CC(CN)C2)c1 [Compound 1-17, 2-{4-[3-(aminomethyl)azetidin-1-yl]-5-(3-fluoro-5-methylphenyl)pyridin-3-yl}-6-fluoro-1H-1,3-benzodiazole-5-carbonitrile] the EC50 was 100 to 1000 nM. Work on Cc1cc(C)c2nc(-c3cncc(-c4cccc(C#N)c4)c3N3CC[C@](C)(N)C3)[nH]c2n1 [Compound 2-173, 3-{4-[(3S)-3-amino-3-methylpyrrolidin-1-yl]-5-{5,7-dimethyl-1H-imidazo[4,5-b]pyridin-2-yl}pyridin-3-yl}benzonitrile] yielded an EC50 of under 10 nM. CC1(N)CCN(c2c(-c3ccnc(C#N)c3)cncc2-c2nc3cccc(C#N)c3[nH]2)C1 (stereo not drawn) [Compound 2-160, 4-(3-amino-3-methylpyrrolidin-1-yl)-5-(4-cyano-1H-1,3-benzodiazol-2-yl)-[3,4′-bipyridine]-2′-carbonitrile] gave an EC50 of under 10 nM. For Cc1ccc2nc(-c3cncc(-c4cc(F)cc(Cl)c4)c3N3CC[C@H](N)C3)[nH]c2c1 [Compound 2-102, (3S)-1-[3-(3-chloro-5-fluorophenyl)-5-(5-methyl-1H-1,3-benzodiazol-2-yl)pyridin-4-yl]pyrrolidin-3-amine], the EC50 was under 10 nM. CC1(N)CCN(c2c(-c3cccc(N4CCOC4=O)c3)cncc2-c2nc3cccc(F)c3[nH]2)C1 (stereo not drawn) [Compound 2-17, 3-{3-[4-(3-amino-3-methylpyrrolidin-1-yl)-5-(4-fluoro-1H-1,3-benzodiazol-2-yl)pyridin-3-yl]phenyl}-1,3-oxazolidin-2-one] gave an EC50 of 10 to 100 nM. Compound N#Cc1cc(-c2cncc(-c3nc4cccc(C#N)c4[nH]3)c2N2CC[C@H](N)C2)ccc1F [Compound 2-158, 2-{4-[(3S)-3-aminopyrrolidin-1-yl]-5-(3-cyano-4-fluorophenyl)pyridin-3-yl}-1H-1,3-benzodiazole-4-carbonitrile] has an EC50 of under 10 nM. For N#Cc1cccc(-c2cncc(-c3nc4cccc(F)c4[nH]3)c2N2C[C@@H](N)[C@@H](O)C2)c1 (racemic) [Compound 2-68, 3-{4-[cis-3-amino-4-hydroxypyrrolidin-1-yl]-5-(4-fluoro-1H-1,3-benzodiazol-2-yl)pyridin-3-yl}benzonitrile], the EC50 was 10 to 100 nM. CNC(=O)c1cccc(-c2cncc(-c3nc4cccc(F)c4[nH]3)c2N2CCC(C)(N)C2)c1 (stereo not drawn) [Compound 2-19, 3-[4-(3-amino-3-methylpyrrolidin-1-yl)-5-(4-fluoro-1H-1,3-benzodiazol-2-yl)pyridin-3-yl]-N-methylbenzamide] was tested, and the EC50 was 10 to 100 nM. Cn1c(-c2cncc(-c3cccc(C#N)c3)c2N2CC[C@H](N)C2)nc2c(F)cccc21 [Compound 2-74, 3-{4-[(3S)-3-aminopyrrolidin-1-yl]-5-(4-fluoro-1-methyl-1H-1,3-benzodiazol-2-yl)pyridin-3-yl}benzonitrile] gave an EC50 of under 10 nM. For NC(=O)c1cc(F)cc(-c2cncc(-c3nc4cccc(F)c4[nH]3)c2N2CC[C@H](N)C2)c1 [Compound 2-72, 3-{4-[(3S)-3-aminopyrrolidin-1-yl]-5-(4-fluoro-1H-1,3-benzodiazol-2-yl)pyridin-3-yl}-5-fluorobenzamide], the EC50 was under 10 nM. Compound N#Cc1cc(F)cc(-c2cncc(-c3nc4cccc(F)c4[nH]3)c2N2CCC(N)(C(F)(F)F)C2)c1 (stereo not drawn) [Compound 2-78, 3-{4-[3-amino-3-(trifluoromethyl)pyrrolidin-1-yl]-5-(4-fluoro-1H-1,3-benzodiazol-2-yl)pyridin-3-yl}-5-fluorobenzonitrile] has an EC50 of 100 to 1000 nM. With NCC1CN(c2c(-c3nc4cc(F)cc(F)c4[nH]3)cncc2-c2cccc3ccccc23)C1 [Compound 1-52, 1-{1-[3-(4,6-difluoro-1H-1,3-benzodiazol-2-yl)-5-(naphthalen-1-yl)pyridin-4-yl]azetidin-3-yl}methanamine] the EC50 was 10 to 100 nM. Work on N#Cc1cccc(-c2cncc(-c3nc4c(C(N)=O)cccc4[nH]3)c2N2CC[C@H](N)C2)c1 [Compound 2-83, 2-{4-[(3S)-3-aminopyrrolidin-1-yl]-5-(3-cyanophenyl)pyridin-3-yl}-1H-1,3-benzodiazole-4-carboxamide] yielded an EC50 of 100 to 1000 nM. For N#Cc1ccc(-c2cncc(-c3nc4c(F)cccc4[nH]3)c2N2CC[C@H](N)C2)cc1F [Compound 2-35, 4-{4-[(3S)-3-aminopyrrolidin-1-yl]-5-(4-fluoro-1H-1,3-benzodiazol-2-yl)pyridin-3-yl}-2-fluorobenzonitrile], the EC50 was 10 to 100 nM. Cc1ccccc1-c1cncc(-c2nc3cc(F)cc(F)c3[nH]2)c1N1CC(CN)C1 [Compound 1-30, 1-{1-[3-(4,6-difluoro-1H-1,3-benzodiazol-2-yl)-5-(2-methylphenyl)pyridin-4-yl]azetidin-3-yl}methanamine] gave an EC50 of 10 to 100 nM. In the case of NCC1CN(c2c(-c3ccccc3)cncc2-c2nc3c(F)cc(F)cc3[nH]2)C1 [Compound 1-27, 1-{1-[3-(4,6-difluoro-1H-1,3-benzodiazol-2-yl)-5-phenylpyridin-4-yl]azetidin-3-yl}methanamine], the EC50 is reported as 10 to 100 nM. For NCC1CN(c2c(-c3cc(Cl)cc(Cl)c3)cncc2-c2nc3cc(F)cc(F)c3[nH]2)C1 [Compound 1-60, 1-{1-[3-(3,5-dichlorophenyl)-5-(4,6-difluoro-1H-1,3-benzodiazol-2-yl)pyridin-4-yl]azetidin-3-yl}methanamine], the EC50 was under 10 nM. For Cc1ccc(-c2cncc(-c3nc4cc(F)cc(F)c4[nH]3)c2N2CC(CN)C2)cc1 [Compound 1-31, 1-{1-[3-(4,6-difluoro-1H-1,3-benzodiazol-2-yl)-5-(4-methylphenyl)pyridin-4-yl]azetidin-3-yl}methanamine], the EC50 was 10 to 100 nM. Work on Cc1cc(F)cc(-c2cncc(-c3ncc[nH]3)c2N2CC(CN)C2)c1 [Compound 1-56, 1-{1-[3-(3-fluoro-5-methylphenyl)-5-(1H-imidazol-2-yl)pyridin-4-yl]azetidin-3-yl}methanamine] yielded an EC50 of over 1000 nM. COc1ccc(-c2cncc(-c3nc4c(C#N)ccnc4[nH]3)c2N2CC[C@](C)(N)C2)cc1C#N [Compound 2-179, 2-{4-[(3S)-3-mino-3-methylpyrrolidin-1-yl]-5-(3-cyano-4-methoxyphenyl)pyridin-3-yl}-1H-imidazo[4,5-b]pyridine-7-carbonitrile] gave an EC50 of 10 to 100 nM. N#Cc1c(F)ccc(-c2cncc(-c3nc4cccc(F)c4[nH]3)c2N2CC[C@H](N)C2)c1F [Compound 2-32, 3-{4-[(3S)-3-aminopyrrolidin-1-yl]-5-(4-fluoro-1H-1,3-benzodiazol-2-yl)pyridin-3-yl}-2,6-difluorobenzonitrile] gave an EC50 of under 10 nM. Work on Cn1c(-c2cncc(-c3ccc(F)c(C#N)c3)c2N2CC[C@H](N)C2)nc2cccc(Cl)c21 [Compound 2-133, 5-{4-[(3S)-3-aminopyrrolidin-1-yl]-5-(7-chloro-1-methyl-1H-1,3-benzodiazol-2-yl)pyridin-3-yl}-2-fluorobenzonitrile] yielded an EC50 of under 10 nM. With N#Cc1cccc(-c2cncc(-c3nc4c(CO)cccc4[nH]3)c2N2CC[C@H](N)C2)c1 [Compound 2-91, 3-{4-[(3S)-3-aminopyrrolidin-1-yl]-5-[7-(hydroxymethyl)-1H-1,3-benzodiazol-2-yl]pyridin-3-yl}benzonitrile] the EC50 was 100 to 1000 nM. CN(C)c1ccc(-c2cncc(-c3nc4cccc(F)c4[nH]3)c2N2CCC(C)(N)C2)cn1 (stereo not drawn) [Compound 2-14, 4′-(3-amino-3-methylpyrrolidin-1-yl)-5′-(4-fluoro-1H-1,3-benzodiazol-2-yl)-N,N-dimethyl-[3,3′-bipyridin]-6-amine] showed an EC50 of 100 to 1000 nM. N#Cc1cccc(-c2cncc(-c3nc4cccc(F)c4[nH]3)c2N2C[C@@H](N)[C@H](c3ccccc3)C2)c1 (racemic) [Compound 2-56, 3-{4-[trans-3-amino-4-phenylpyrrolidin-1-yl]-5-(4-fluoro-1H-1,3-benzodiazol-2-yl)pyridin-3-yl}benzonitrile] showed an EC50 of 100 to 1000 nM. With Cc1cccc2nc(-c3cncc(-c4ccnc(C(N)=O)c4)c3N3CCC(C)(N)C3)[nH]c12 (stereo not drawn) [Compound 2-105, 4-(3-amino-3-methylpyrrolidin-1-yl)-5-(4-methyl-1H-1,3-benzodiazol-2-yl)-[3,4′-bipyridine]-2′-carboxamide] the EC50 was 10 to 100 nM. Cc1cc(C)c2[nH]c(-c3cncc(-c4ccc(F)c(C#N)c4)c3N3CC[C@](C)(N)C3)nc2n1 [Compound 2-174, 5-{4-[(3S)-3-amino-3-methylpyrrolidin-1-yl]-5-{5,7-dimethyl-1H-imidazo[4,5-b]pyridin-2-yl}pyridin-3-yl}-2-fluorobenzonitrile] was tested, and the EC50 was under 10 nM. For N[C@H]1CCN(c2c(-c3cc(O)cc(F)c3)cncc2-c2nc3cccc(F)c3[nH]2)C1 [Compound 2-25, 3-{4-[(3S)-3-aminopyrrolidin-1-yl]-5-(4-fluoro-1H-1,3-benzodiazol-2-yl)pyridin-3-yl}-5-fluorophenol], the EC50 was 10 to 100 nM. In the case of CC1(N)CCN(c2c(-c3ccc4[nH]ccc4c3)cncc2-c2nc3cccc(F)c3[nH]2)C1 (stereo not drawn) [Compound 2-30, 1-[3-(4-fluoro-1H-1,3-benzodiazol-2-yl)-5-(1H-indol-5-yl)pyridin-4-yl]-3-methylpyrrolidin-3-amine], the EC50 is reported as 100 to 1000 nM. NC(=O)c1cc(-c2cncc(-c3nc4c(F)ccc(F)c4[nH]3)c2N2CC[C@H](N)C2)ccc1F [Compound 2-61, 5-{4-[(3S)-3-aminopyrrolidin-1-yl]-5-(4,7-difluoro-1H-1,3-benzodiazol-2-yl)pyridin-3-yl}-2-fluorobenzamide] gave an EC50 of 10 to 100 nM. CNC(=O)c1cccc2nc(-c3cncc(-c4cccc(C#N)c4)c3N3CC[C@H](N)C3)[nH]c12 [Compound 2-90, 2-{4-[(3S)-3-aminopyrrolidin-1-yl]-5-(3-cyanophenyl)pyridin-3-yl}-N-methyl-1H-1,3-benzodiazole-4-carboxamide] showed an EC50 of over 1000 nM. In the case of Cc1c(Cl)cccc1-c1cncc(-c2nc3cc(F)cc(F)c3[nH]2)c1N1CC(CN)C1 [Compound 1-66, 1-{1-[3-(3-chloro-2-methylphenyl)-5-(4,6-difluoro-1H-1,3-benzodiazol-2-yl)pyridin-4-yl]azetidin-3-yl}methanamine], the EC50 is reported as 10 to 100 nM.

— patent US11608335B2, “Somatostatin modulators and uses thereof” (CRINETICS PHARMACEUTICALS, INC., priority 2018, dated 2023)
